# In the kinase profiling compilation of Christmann-Franck et al. (2016):
# Tests used:
# Settings in all cases: compound 10.0 µM
# CDK4 CCND1 (human) = CDK4 CCND1 (human) (UniProt P11802+P24385)
# PASK (human) = PASK (human) (UniProt Q96RG2)
# ULK2 (human) = ULK2 (human) (UniProt Q8IYT8)
# RET (human) = RET (human) (UniProt P07949)
# PAK1 (human) = PAK1 (human) (UniProt Q13153)
# NUAK1 (human) = NUAK1 (human) (UniProt O60285)
# CDC42BPA (human) = CDC42BPA (human) (UniProt Q5VT25)
# ABL2 (human) = ABL2 (human) (UniProt P42684)
# CDK4 CCND3 (human) = CDK4 CCND3 (human) (UniProt P11802+P30281)
# SIK2 (human) = SIK2 (human) (UniProt Q9H0K1)
# FGFR3 (human) = FGFR3 (human) (UniProt P22607)
# AURKA (human) = AURKA (human) (UniProt O14965)
# MAP3K14 (human) = MAP3K14 (human) (UniProt Q99558)
# HIPK2 (human) = HIPK2 (human) (UniProt Q9H2X6)
# STK11 (human) = STK11 (human) (UniProt Q15831)
# Chain of STK11 (human) (Q15831 whole entry, looked up): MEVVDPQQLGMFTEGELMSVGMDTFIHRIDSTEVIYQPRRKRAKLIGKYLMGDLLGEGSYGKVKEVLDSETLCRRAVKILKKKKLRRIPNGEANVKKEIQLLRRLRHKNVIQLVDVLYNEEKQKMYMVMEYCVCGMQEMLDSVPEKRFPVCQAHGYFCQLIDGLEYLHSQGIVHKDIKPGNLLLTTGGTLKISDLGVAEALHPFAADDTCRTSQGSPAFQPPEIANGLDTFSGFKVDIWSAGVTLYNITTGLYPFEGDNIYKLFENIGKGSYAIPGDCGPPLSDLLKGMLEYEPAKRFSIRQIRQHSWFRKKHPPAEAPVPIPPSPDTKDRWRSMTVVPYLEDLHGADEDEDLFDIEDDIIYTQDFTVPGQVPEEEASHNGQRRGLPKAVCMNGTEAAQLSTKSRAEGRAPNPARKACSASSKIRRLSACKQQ
# ACVRL1 (human) = ACVRL1 (human) (UniProt P37023)
# LTK (human) = LTK (human) (UniProt P29376)
# Chain of LTK (human) (P29376 whole entry, looked up): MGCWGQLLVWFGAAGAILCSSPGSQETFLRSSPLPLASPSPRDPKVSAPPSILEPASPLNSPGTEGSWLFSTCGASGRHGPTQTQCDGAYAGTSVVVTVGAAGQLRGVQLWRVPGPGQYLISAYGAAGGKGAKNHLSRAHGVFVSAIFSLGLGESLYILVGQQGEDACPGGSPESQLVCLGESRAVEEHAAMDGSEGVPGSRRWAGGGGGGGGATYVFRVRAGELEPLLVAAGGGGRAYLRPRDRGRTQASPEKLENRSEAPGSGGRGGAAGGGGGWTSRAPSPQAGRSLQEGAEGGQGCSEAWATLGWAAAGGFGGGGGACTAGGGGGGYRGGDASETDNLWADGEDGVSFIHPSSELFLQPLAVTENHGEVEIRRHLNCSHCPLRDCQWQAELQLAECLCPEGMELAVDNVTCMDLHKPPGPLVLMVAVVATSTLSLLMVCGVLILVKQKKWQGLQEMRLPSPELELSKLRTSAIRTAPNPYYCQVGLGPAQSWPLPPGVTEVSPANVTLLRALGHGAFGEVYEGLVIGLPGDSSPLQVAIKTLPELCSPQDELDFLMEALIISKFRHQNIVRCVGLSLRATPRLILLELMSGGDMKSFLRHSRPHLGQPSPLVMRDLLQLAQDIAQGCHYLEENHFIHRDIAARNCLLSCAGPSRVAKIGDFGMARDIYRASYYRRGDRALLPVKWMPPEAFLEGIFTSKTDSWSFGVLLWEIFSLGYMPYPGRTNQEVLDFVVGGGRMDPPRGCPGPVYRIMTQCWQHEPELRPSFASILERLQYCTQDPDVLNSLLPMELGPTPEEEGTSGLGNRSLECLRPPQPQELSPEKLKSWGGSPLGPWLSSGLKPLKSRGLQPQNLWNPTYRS
# TGFBR2 (human) = TGFBR2 (human) (UniProt P37173)
# EPHA4 (human) = EPHA4 (human) (UniProt P54764)
# Chain of EPHA4 (human) (P54764 whole entry, looked up): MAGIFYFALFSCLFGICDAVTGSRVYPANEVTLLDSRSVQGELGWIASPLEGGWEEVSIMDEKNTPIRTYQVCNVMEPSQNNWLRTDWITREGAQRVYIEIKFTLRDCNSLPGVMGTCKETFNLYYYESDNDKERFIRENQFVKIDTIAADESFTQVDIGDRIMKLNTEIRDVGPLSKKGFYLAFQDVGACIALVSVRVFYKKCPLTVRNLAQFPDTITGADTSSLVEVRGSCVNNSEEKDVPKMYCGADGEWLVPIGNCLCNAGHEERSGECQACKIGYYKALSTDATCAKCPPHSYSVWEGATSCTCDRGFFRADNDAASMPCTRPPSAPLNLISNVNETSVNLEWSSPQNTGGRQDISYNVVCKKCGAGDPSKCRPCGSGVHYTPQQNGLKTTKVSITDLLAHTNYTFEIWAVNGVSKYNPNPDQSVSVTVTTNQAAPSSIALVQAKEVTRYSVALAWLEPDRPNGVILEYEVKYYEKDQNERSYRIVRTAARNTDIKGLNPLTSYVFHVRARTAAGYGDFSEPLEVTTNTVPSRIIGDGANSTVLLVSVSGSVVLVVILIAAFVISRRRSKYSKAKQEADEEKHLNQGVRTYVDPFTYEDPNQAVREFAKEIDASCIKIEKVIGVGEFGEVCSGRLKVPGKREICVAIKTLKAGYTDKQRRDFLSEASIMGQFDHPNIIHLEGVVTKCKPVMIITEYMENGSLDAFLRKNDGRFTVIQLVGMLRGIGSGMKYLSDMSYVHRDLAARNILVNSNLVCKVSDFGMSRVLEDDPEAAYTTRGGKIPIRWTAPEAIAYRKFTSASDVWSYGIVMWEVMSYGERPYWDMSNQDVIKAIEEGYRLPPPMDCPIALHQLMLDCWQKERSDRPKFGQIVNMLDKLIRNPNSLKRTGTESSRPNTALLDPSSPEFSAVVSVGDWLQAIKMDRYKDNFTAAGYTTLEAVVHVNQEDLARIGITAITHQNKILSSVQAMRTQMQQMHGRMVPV
# DYRK4 (human) = DYRK4 (human) (UniProt Q9NR20)
# Chain of DYRK4 (human) (Q9NR20 whole entry, looked up): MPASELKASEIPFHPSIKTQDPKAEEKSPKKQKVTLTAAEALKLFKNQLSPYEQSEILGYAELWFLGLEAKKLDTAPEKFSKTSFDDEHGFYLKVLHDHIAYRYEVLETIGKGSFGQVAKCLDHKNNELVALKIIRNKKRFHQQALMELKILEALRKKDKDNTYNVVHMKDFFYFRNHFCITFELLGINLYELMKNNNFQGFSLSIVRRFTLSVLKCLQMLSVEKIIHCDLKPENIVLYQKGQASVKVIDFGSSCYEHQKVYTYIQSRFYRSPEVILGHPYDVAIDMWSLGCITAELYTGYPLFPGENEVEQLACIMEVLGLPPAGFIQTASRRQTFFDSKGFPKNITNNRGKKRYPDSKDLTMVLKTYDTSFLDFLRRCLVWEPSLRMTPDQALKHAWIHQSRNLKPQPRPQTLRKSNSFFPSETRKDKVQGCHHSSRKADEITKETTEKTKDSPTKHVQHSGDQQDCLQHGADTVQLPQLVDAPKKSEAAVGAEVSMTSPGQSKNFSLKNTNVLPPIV
# PRKG2 (human) = PRKG2 (human) (UniProt Q13237)
# NEK4 (human) = NEK4 (human) (UniProt P51957)
# FGFR4 (human) = FGFR4 (human) (UniProt P22455)
# MAPKAPK3 (human) = MAPKAPK3 (human) (UniProt Q16644)
# MAP3K11 (human) = MAP3K11 (human) (UniProt Q16584)
# MERTK (human) = MERTK (human) (UniProt Q12866)
# Chain of MERTK (human) (Q12866 whole entry, looked up): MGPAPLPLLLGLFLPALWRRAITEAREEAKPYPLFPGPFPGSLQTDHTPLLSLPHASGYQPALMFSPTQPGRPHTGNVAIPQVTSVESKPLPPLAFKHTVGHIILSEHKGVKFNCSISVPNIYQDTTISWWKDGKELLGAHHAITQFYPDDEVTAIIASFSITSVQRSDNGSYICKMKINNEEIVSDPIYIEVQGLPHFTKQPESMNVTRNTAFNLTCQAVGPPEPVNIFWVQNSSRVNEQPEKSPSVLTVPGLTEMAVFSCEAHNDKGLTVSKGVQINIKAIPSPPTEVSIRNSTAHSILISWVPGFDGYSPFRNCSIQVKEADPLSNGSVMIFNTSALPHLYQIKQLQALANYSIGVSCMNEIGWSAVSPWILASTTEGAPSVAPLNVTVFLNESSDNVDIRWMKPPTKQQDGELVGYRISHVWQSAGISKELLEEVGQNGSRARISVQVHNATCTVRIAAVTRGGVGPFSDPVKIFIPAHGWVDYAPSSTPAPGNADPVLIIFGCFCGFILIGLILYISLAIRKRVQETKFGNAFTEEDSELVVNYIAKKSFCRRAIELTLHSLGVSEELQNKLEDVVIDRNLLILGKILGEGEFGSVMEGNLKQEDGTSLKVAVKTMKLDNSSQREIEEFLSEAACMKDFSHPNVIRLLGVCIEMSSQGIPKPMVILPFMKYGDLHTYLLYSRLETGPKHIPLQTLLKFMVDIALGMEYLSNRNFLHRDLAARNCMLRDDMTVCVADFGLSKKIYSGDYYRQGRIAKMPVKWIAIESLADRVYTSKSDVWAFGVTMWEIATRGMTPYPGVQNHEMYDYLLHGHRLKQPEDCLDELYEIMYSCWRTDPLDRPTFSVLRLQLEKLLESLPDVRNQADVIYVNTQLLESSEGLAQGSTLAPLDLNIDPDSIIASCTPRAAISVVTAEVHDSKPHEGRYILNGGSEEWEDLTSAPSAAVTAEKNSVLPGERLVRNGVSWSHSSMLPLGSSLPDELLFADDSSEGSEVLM
# MINK1 (human) = MINK1 (human) (UniProt Q8N4C8)
# PIM3 (human) = PIM3 (human) (UniProt Q86V86)
# FLT1 (human) = FLT1 (human) (UniProt P17948)
# AKT3 (human) = AKT3 (human) (UniProt Q9Y243)
# MELK (human) = MELK (human) (UniProt Q14680)
# LCK (human) = LCK (human) (UniProt P06239)
# STK39 (human) = STK39 (human) (UniProt Q9UEW8)
# EPHA7 (human) = EPHA7 (human) (UniProt Q15375)
# ZAP70 (human) = ZAP70 (human) (UniProt P43403)
# Chain of ZAP70 (human) (P43403 whole entry, looked up): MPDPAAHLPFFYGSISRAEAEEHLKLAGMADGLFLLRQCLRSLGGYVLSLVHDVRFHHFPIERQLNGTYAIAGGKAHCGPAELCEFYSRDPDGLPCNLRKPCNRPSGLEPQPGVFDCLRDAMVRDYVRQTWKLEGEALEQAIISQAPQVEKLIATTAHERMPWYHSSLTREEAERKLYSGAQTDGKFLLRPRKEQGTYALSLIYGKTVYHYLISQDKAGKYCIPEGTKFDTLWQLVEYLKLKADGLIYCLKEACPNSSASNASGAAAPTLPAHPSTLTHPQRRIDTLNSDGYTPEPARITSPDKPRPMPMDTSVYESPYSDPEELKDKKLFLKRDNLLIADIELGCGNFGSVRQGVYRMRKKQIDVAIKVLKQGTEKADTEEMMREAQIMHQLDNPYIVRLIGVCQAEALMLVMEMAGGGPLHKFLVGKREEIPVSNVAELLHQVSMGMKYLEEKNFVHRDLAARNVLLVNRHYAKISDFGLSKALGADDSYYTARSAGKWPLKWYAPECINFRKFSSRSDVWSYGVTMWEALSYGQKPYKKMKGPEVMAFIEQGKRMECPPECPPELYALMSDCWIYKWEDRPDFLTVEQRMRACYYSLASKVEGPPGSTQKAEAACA
# SLK (human) = SLK (human) (UniProt Q9H2G2)
# NUAK2 (human) = NUAK2 (human) (UniProt Q9H093)
# Chain of NUAK2 (human) (Q9H093 whole entry, looked up): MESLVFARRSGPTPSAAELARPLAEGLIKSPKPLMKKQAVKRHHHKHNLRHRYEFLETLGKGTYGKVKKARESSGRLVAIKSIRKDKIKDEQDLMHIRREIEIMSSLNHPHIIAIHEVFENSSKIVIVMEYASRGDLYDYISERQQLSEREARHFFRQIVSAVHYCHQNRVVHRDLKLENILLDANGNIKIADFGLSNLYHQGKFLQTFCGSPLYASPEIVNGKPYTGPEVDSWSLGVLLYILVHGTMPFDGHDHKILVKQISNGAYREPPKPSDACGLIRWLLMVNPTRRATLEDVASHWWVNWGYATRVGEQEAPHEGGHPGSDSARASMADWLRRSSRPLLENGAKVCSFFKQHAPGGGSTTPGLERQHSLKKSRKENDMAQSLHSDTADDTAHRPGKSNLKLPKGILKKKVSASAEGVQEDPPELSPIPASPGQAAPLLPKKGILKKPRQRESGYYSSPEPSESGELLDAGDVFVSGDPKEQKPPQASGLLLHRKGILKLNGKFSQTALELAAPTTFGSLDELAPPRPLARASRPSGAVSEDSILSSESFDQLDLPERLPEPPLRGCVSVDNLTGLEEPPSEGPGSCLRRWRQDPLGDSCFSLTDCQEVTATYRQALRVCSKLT
# CSNK2A1 (human) = CSNK2A1 (human) (UniProt P68400)
# PKN2 (human) = PKN2 (human) (UniProt Q16513)
# MUSK (human) = MUSK (human) (UniProt O15146)
# ITK (human) = ITK (human) (UniProt Q08881)
# IRAK4 (human) = IRAK4 (human) (UniProt Q9NWZ3)
# MAP3K5 (human) = MAP3K5 (human) (UniProt Q99683)
# EPHB1 (human) = EPHB1 (human) (UniProt P54762)
compound,measurement,setting,value
CC[C@H](C)n1cc(C)c2c(C(=O)NCc3c(C)cc(C)[nH]c3=O)cc(-c3ccc(N4CCNCC4)nc3)cc21,residual activity,CDK4 CCND1 (human),94.5%
same,residual activity,PASK (human),90.5%
same,residual activity,ULK2 (human),99.5%
same,residual activity,RET (human),98.5%
same,residual activity,PAK1 (human),106%
same,residual activity,NUAK1 (human),102%
same,residual activity,CDC42BPA (human),100%
same,residual activity,ABL2 (human),88%
same,residual activity,CDK4 CCND3 (human),104%
same,residual activity,SIK2 (human),108%
same,residual activity,FGFR3 (human),80.5%
same,residual activity,AURKA (human),88%
same,residual activity,MAP3K14 (human),99%
same,residual activity,HIPK2 (human),90%
same,residual activity,STK11 (human),106%
same,residual activity,ACVRL1 (human),98%
same,residual activity,LTK (human),102%
same,residual activity,TGFBR2 (human),100%
same,residual activity,EPHA4 (human),92%
same,residual activity,DYRK4 (human),98.5%
same,residual activity,PRKG2 (human),97%
same,residual activity,NEK4 (human),95.5%
same,residual activity,FGFR4 (human),89%
same,residual activity,MAPKAPK3 (human),100%
same,residual activity,MAP3K11 (human),95%
same,residual activity,MERTK (human),98.5%
same,residual activity,MINK1 (human),106%
same,residual activity,PIM3 (human),93.5%
same,residual activity,FLT1 (human),97.5%
same,residual activity,AKT3 (human),94%
same,residual activity,MELK (human),79.5%
same,residual activity,LCK (human),99%
same,residual activity,STK39 (human),95.5%
same,residual activity,EPHA7 (human),91.5%
same,residual activity,ZAP70 (human),97.5%
same,residual activity,SLK (human),108%
same,residual activity,NUAK2 (human),103%
same,residual activity,CSNK2A1 (human),110%
same,residual activity,PKN2 (human),89.5%
same,residual activity,MUSK (human),104%
same,residual activity,ITK (human),89.5%
same,residual activity,IRAK4 (human),107%
same,residual activity,MAP3K5 (human),102%
same,residual activity,EPHB1 (human),90.5%
